Data from patent publication EP0090353A1, “2-Pyridone derivatives, method for their preparation and pharmaceutical compositions containing them” (priority 1982, dated 1983).

Experiments:
gastrale Ulcera = assay: Gastric ulcerogenic effect; conditions: ratio of UD50 (gastric ulcers) to ED50 (adjuvant arthritis), rat
Source text: Gastrale ulzerogene Wirkung
(§2) Die Untersuchungen erfolgten an jeweils 10 männlichen Sprague-Dawley Ratten im Körpergewicht von 200-300 g. 48 Stunden vor Applikation der zu vergleichenden Verbindungen bis zum Töten der Tiere wurde das Futter entzogen, bei freiem Zugang zum Trinkwasser. Die Ratten wurden 24 Stunden nach oraler Gabe getötet, der Magen entnommen, unter fließendem Wasser gereinigt und auf Schleimhautläsionen inspiziert. Als Ulzera galten alle makroskopisch sichtbaren Läsionen. Bestimmt wurde der Anteil der Tiere mit Ulzera pro dosi und die UD50 nach Lichtfield und Wilcoxon (J. Pharmacol. exp. Ther. 96, 99 (1949)).

[1] = Gastric ulcerogenic effect; conditions: rat, stomach, po
Source text: Gastrale ulzerogene Wirkung
as §2

Adjuvans Arthritis = assay: Adjuvant arthritis (method of Pearson); type: in vivo, männliche Ratten eines Wistar-Lewis-Stammes; conditions: Rattus norvegicus; male Wistar-Lewis rats, oral daily from day 1 to day 5; reduction of paw volume increase vs control; ED50 read graphically from dose-response curve
Source text: 1. Adjuvans Arthritis Die Untersuchungen wurden nach der Methode von Pearson durchgeführt (Arthrit. Rheum. 2, 440 (1959)). […] Die zu […] Verbindungen wurden täglich vom 1. bis zum 5. Versuchstag oral appliziert. Tiere einer Kontrollgruppe erhielten nur das Lösungsmittel. Pro Dosierung und in der Kontrollgruppe wurden jeweils 8 […] unbehandelten Kontrollgruppe. Die ED50-Werte wurden graphisch aus […].

[2] = test system: Ratten des Sprague-Dawley-Stammes; assay: in vivo; conditions: ratio of LD50 (acute toxicity) to ED50 (adjuvant arthritis), rat
Source text: (§1) Die Bestimmung der akuten Toxizitäten erfolgten in Standardmethoden an Ratten des Sprague-Dawley-Stammes. Pro Dosierung wurden 6 Tiere verwendet. Die LD50-Werte wurden nach Lichtfield und Wilcoxon bestimmt. [drawing 8]

in vivo = conditions: rat, in vivo; Sprague-Dawley rats, 6 animals per dose; Litchfield-Wilcoxon; read-out: LD50 akute Toxizität
Source text: as §1

SMILES	TI(UD50/ED50) therapeutischer Index (gastrale Ulcera)	TD50 at 24 h [1]	ED50 (Adjuvans Arthritis)	TI (LD50 /ED50) therapeutischer Index [2]	LD50 (in vivo)
CCOC(=O)[C@@H](C)Oc1cccc(-c2ccccc2)n1 [Beisp. 7, D(+)-2-(6-Phenylpyridin-2-oxy)-propansäureethylester]	8	125 mg/kg	15 mg/kg		
CC(Oc1cccc(-c2ccccc2)n1)C(=O)O (racemic) [Beisp. 4, DL-2-(6-Phenylpyridin-2-oxy)-propansäure]	9	175 mg/kg	20 mg/kg		
CC(CO)Oc1cccc(-c2ccccc2)n1 (racemic) [Beisp. 9, DL-2-(6-Phenylpyridin-2-oxy)-propanol]	11	220 mg/kg	20 mg/kg	50	1000 mg/kg
COc1ccc2cc([C@H](C)C(=O)O)ccc2c1 [Naproxen, reference compound]			15 mg/kg		
CC1=C(CC(=O)O)c2cc(F)ccc2/C1=C\c1ccc([S+](C)[O-])cc1 (stereo not drawn) [Sulindac, reference compound]	2	26 mg/kg	13 mg/kg		
